Measured values as given in PubChem BioAssay AID2060611 (Molecular Pharmacology Branch, DTP, NCI, 2025).

Test system: 628569-122-R-J1-PDC complex spheroid viability
Assay: Anticancer human tumor 628569-122-R-J1-PDC patient-derived head and neck squamous carcinoma cell line growth inhibition [CLK]
Conditions: for IC50: curve of first compound; for viability, T/C: stronger effect = lower value
Procedure, shortened: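 Patient-derived tumor cells grown as complex spheroids with HUVEC endothelial cells and mesenchymal stem cells, treated with drug combinations. Concentrations descend in half-log steps from near clinical Cmax, or from 10 microM if Cmax unknown.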

[1] = second compound 0.0316 µM, first compound 0.0316 µM
[2] = second compound 0.0316 µM, first compound 0.1 µM
[3] = second compound 0.0316 µM, first compound 0.316 µM
[4] = second compound 0.0316 µM, first compound 1 µM
[5] = second compound 0.0316 µM, first compound 3.16 µM
[6] = second compound 0.0316 µM, first compound 10 µM
[7] = second compound 0.1 µM, first compound 0.0316 µM
[8] = second compound 0.1 µM, first compound 0.1 µM
[9] = second compound 0.1 µM, first compound 0.316 µM
[10] = second compound 0.1 µM, first compound 1 µM
[11] = second compound 0.1 µM, first compound 3.16 µM
[12] = second compound 0.1 µM, first compound 10 µM
[13] = second compound 0.316 µM, first compound 0.0316 µM
[14] = second compound 0.316 µM, first compound 0.1 µM
[15] = second compound 0.316 µM, first compound 0.316 µM
[16] = second compound 0.316 µM, first compound 1 µM
[17] = second compound 0.316 µM, first compound 3.16 µM
[18] = second compound 0.316 µM, first compound 10 µM
[19] = second compound 1 µM, first compound 0.0316 µM
[20] = second compound 1 µM, first compound 0.1 µM
[21] = second compound 1 µM, first compound 0.316 µM
[22] = second compound 1 µM, first compound 1 µM
[23] = second compound 1 µM, first compound 3.16 µM
[24] = second compound 1 µM, first compound 10 µM
[25] = second compound 3.16 µM, first compound 0.0316 µM
[26] = second compound 3.16 µM, first compound 0.1 µM
[27] = second compound 3.16 µM, first compound 0.316 µM
[28] = second compound 3.16 µM, first compound 1 µM
[29] = second compound 3.16 µM, first compound 3.16 µM
[30] = second compound 3.16 µM, first compound 10 µM
[31] = second compound 10 µM, first compound 0.0316 µM
[32] = second compound 10 µM, first compound 0.1 µM
[33] = second compound 10 µM, first compound 0.316 µM
[34] = second compound 10 µM, first compound 1 µM
[35] = second compound 10 µM, first compound 3.16 µM
[36] = second compound 10 µM, first compound 10 µM
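Also: spheroids exposed to agents for seven days before readout.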
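For viability, T/C in this document: 100% = DMSO vehicle control viability.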

With `CC1(C)CCC(CN2CCN(c3ccc(C(=O)NS(=O)(=O)c4ccc(NCC5CCOCC5)c([N+](=O)[O-])c4)c(Oc4cnc5[nH]ccc5c4)c3)CC2)=C(c2ccc(Cl)cc2)C1` + CNC(=O)c1ccc(Nc2nc(OC3CCCC3)c3c(-c4ccc5nc(C)oc5c4)c[nH]c3n2)c(OC)c1 as the compound, how does the IC50 (second compound 0.0316 µM) read?
The IC50 was greater than 10 µM.

And the IC50 (second compound 0.1 µM)?
The IC50 was greater than 10 µM.

What about the IC50 (second compound 0.316 µM) of the same compound?
Its IC50 is greater than 10 µM.

And the IC50 (second compound 1 µM)?
The IC50 was greater than 10 µM.

And the IC50 (second compound 3.16 µM)?
Its IC50 is less than 0.0316 µM.

What about the IC50 (second compound 10 µM) of the same compound?
Its IC50 is 0.0802 µM.

What about the viability, T/C [1] of the same compound?
Its viability, T/C is 124%.

What about the viability, T/C [2] of the same compound?
The viability, T/C was 102%.

And the viability, T/C [3]?
Its viability, T/C is 96.6%.

And the viability, T/C [4]?
Its viability, T/C is 94.7%.

And the viability, T/C [5]?
Its viability, T/C is 111%.

What about the viability, T/C [6] of the same compound?
The viability, T/C was 75.4%.

What about the viability, T/C [7] of the same compound?
Its viability, T/C is 65.9%.

What about the viability, T/C [8] of the same compound?
The viability, T/C was 55.9%.

And the viability, T/C [9]?
The viability, T/C was 60.4%.

What about the viability, T/C [10] of the same compound?
Its viability, T/C is 57.5%.

And the viability, T/C [11]?
The viability, T/C was 60.4%.

And the viability, T/C [12]?
The viability, T/C was 63.4%.

What about the viability, T/C [13] of the same compound?
The viability, T/C was 52.7%.

What about the viability, T/C [14] of the same compound?
Its viability, T/C is 51.8%.

What about the viability, T/C [15] of the same compound?
The viability, T/C was 53.6%.

What about the viability, T/C [16] of the same compound?
The viability, T/C was 57.9%.

What about the viability, T/C [17] of the same compound?
The viability, T/C was 69.7%.

And the viability, T/C [18]?
Its viability, T/C is 51%.

What about the viability, T/C [19] of the same compound?
The viability, T/C was 48.1%.

What about the viability, T/C [20] of the same compound?
Its viability, T/C is 51.4%.

What about the viability, T/C [21] of the same compound?
Its viability, T/C is 53.2%.

What about the viability, T/C [22] of the same compound?
Its viability, T/C is 59.6%.

What about the viability, T/C [23] of the same compound?
The viability, T/C was 49.4%.

What about the viability, T/C [24] of the same compound?
Its viability, T/C is 53.6%.

What about the viability, T/C [25] of the same compound?
Its viability, T/C is 46.1%.

What about the viability, T/C [26] of the same compound?
Its viability, T/C is 48.4%.

What about the viability, T/C [27] of the same compound?
The viability, T/C was 53.5%.

What about the viability, T/C [28] of the same compound?
The viability, T/C was 51.4%.

What about the viability, T/C [29] of the same compound?
The viability, T/C was 45.8%.

And the viability, T/C [30]?
Its viability, T/C is 41.2%.

And the viability, T/C [31]?
Its viability, T/C is 59.9%.

What about the viability, T/C [32] of the same compound?
Its viability, T/C is 48.7%.

What about the viability, T/C [33] of the same compound?
The viability, T/C was 41.1%.

And the viability, T/C [34]?
The viability, T/C was 43.5%.

What about the viability, T/C [35] of the same compound?
Its viability, T/C is 47.2%.

And the viability, T/C [36]?
Its viability, T/C is 38.6%.

Which results are given for `NC(=O)C(=Cn1cnc(-c2cc(C(F)(F)F)cc(C(F)(F)F)c2)n1)c1cncnc1` + CNC(=O)c1ccc(Nc2nc(OC3CCCC3)c3c(-c4ccc5nc(C)oc5c4)c[nH]c3n2)c(OC)c1?
IC50 (second compound 0.0316 µM): 0.681 µM; IC50 (second compound 0.1 µM): 0.137 µM; IC50 (second compound 0.316 µM): < 0.00949 µM; IC50 (second compound 1 µM): < 0.00949 µM; IC50 (second compound 3.16 µM): < 0.00949 µM; IC50 (second compound 10 µM): < 0.00949 µM; viability, T/C (second compound 0.0316 µM, first compound 0.00949 µM): 75.8%; viability, T/C (second compound 0.0316 µM, first compound 0.03 µM): 61.6%; viability, T/C (second compound 0.0316 µM, first compound 0.0949 µM): 69.8%; viability, T/C (second compound 0.0316 µM, first compound 0.3 µM): 52%; viability, T/C (second compound 0.0316 µM, first compound 0.949 µM): 50.8%; viability, T/C (second compound 0.0316 µM, first compound 3 µM): 35.6%; viability, T/C (second compound 0.1 µM, first compound 0.00949 µM): 52.4%; viability, T/C (second compound 0.1 µM, first compound 0.03 µM): 53.9%; viability, T/C (second compound 0.1 µM, first compound 0.0949 µM): 50.5%; viability, T/C (second compound 0.1 µM, first compound 0.3 µM): 47.5%; viability, T/C (second compound 0.1 µM, first compound 0.949 µM): 39.5%; viability, T/C (second compound 0.1 µM, first compound 3 µM): 32.4%; viability, T/C (second compound 0.316 µM, first compound 0.00949 µM): 47.1%; viability, T/C (second compound 0.316 µM, first compound 0.03 µM): 51.7%; viability, T/C (second compound 0.316 µM, first compound 0.0949 µM): 44.1%; viability, T/C (second compound 0.316 µM, first compound 0.3 µM): 42.5%; viability, T/C (second compound 0.316 µM, first compound 0.949 µM): 35.9%; viability, T/C (second compound 0.316 µM, first compound 3 µM): 33.8%; viability, T/C (second compound 1 µM, first compound 0.00949 µM): 40.7%; viability, T/C (second compound 1 µM, first compound 0.03 µM): 45.9%; viability, T/C (second compound 1 µM, first compound 0.0949 µM): 31.9%; viability, T/C (second compound 1 µM, first compound 0.3 µM): 29.5%; viability, T/C (second compound 1 µM, first compound 0.949 µM): 26.2%; viability, T/C (second compound 1 µM, first compound 3 µM): 25.7%; viability, T/C (second compound 3.16 µM, first compound 0.00949 µM): 36.9%; viability, T/C (second compound 3.16 µM, first compound 0.03 µM): 41.2%; viability, T/C (second compound 3.16 µM, first compound 0.0949 µM): 28.7%; viability, T/C (second compound 3.16 µM, first compound 0.3 µM): 25.5%; viability, T/C (second compound 3.16 µM, first compound 0.949 µM): 15.9%; viability, T/C (second compound 3.16 µM, first compound 3 µM): 12.3%; viability, T/C (second compound 10 µM, first compound 0.00949 µM): 38.6%; viability, T/C (second compound 10 µM, first compound 0.03 µM): 33.7%; viability, T/C (second compound 10 µM, first compound 0.0949 µM): 30.7%; viability, T/C (second compound 10 µM, first compound 0.3 µM): 21.4%; viability, T/C (second compound 10 µM, first compound 0.949 µM): 17.7%; viability, T/C (second compound 10 µM, first compound 3 µM): 13.7%

For `Nc1ccccc1NC(=O)c1ccc(CNC(=O)OCc2cccnc2)cc1` + CNC(=O)c1ccc(Nc2nc(OC3CCCC3)c3c(-c4ccc5nc(C)oc5c4)c[nH]c3n2)c(OC)c1, which IC50 (second compound 0.0316 µM) is on record?
Its IC50 is 9.14 µM.

And the IC50 (second compound 0.1 µM)?
The IC50 was greater than 10 µM.

And the IC50 (second compound 0.316 µM)?
Its IC50 is greater than 10 µM.

And the IC50 (second compound 1 µM)?
The IC50 was 0.184 µM.

What about the IC50 (second compound 3.16 µM) of the same compound?
The IC50 was 3.31 µM.

What about the IC50 (second compound 10 µM) of the same compound?
Its IC50 is 0.0316 µM.

And the viability, T/C [1]?
The viability, T/C was 97.7%.

And the viability, T/C [2]?
The viability, T/C was 114%.

What about the viability, T/C [3] of the same compound?
Its viability, T/C is 125%.

What about the viability, T/C [4] of the same compound?
The viability, T/C was 138%.

And the viability, T/C [5]?
The viability, T/C was 101%.

What about the viability, T/C [6] of the same compound?
Its viability, T/C is 45.6%.

What about the viability, T/C [7] of the same compound?
The viability, T/C was 59.1%.

What about the viability, T/C [8] of the same compound?
The viability, T/C was 55%.

What about the viability, T/C [9] of the same compound?
The viability, T/C was 61.9%.

What about the viability, T/C [10] of the same compound?
Its viability, T/C is 83.7%.

And the viability, T/C [11]?
Its viability, T/C is 102%.

And the viability, T/C [12]?
Its viability, T/C is 32.3%.

And the viability, T/C [13]?
The viability, T/C was 50.8%.

What about the viability, T/C [14] of the same compound?
The viability, T/C was 51%.

What about the viability, T/C [15] of the same compound?
The viability, T/C was 49%.

What about the viability, T/C [16] of the same compound?
Its viability, T/C is 73.3%.

And the viability, T/C [17]?
Its viability, T/C is 94.1%.

And the viability, T/C [18]?
The viability, T/C was 22.5%.

What about the viability, T/C [19] of the same compound?
Its viability, T/C is 42.9%.

And the viability, T/C [20]?
Its viability, T/C is 48.7%.

What about the viability, T/C [21] of the same compound?
The viability, T/C was 47.4%.

And the viability, T/C [22]?
Its viability, T/C is 60.4%.

What about the viability, T/C [23] of the same compound?
Its viability, T/C is 81.8%.

What about the viability, T/C [24] of the same compound?
Its viability, T/C is 12.5%.

And the viability, T/C [25]?
The viability, T/C was 44.6%.

What about the viability, T/C [26] of the same compound?
The viability, T/C was 45.5%.

What about the viability, T/C [27] of the same compound?
The viability, T/C was 45.8%.

What about the viability, T/C [28] of the same compound?
Its viability, T/C is 56.5%.

What about the viability, T/C [29] of the same compound?
The viability, T/C was 67.3%.

What about the viability, T/C [30] of the same compound?
Its viability, T/C is 7.27%.

What about the viability, T/C [31] of the same compound?
The viability, T/C was 48.6%.

And the viability, T/C [32]?
Its viability, T/C is 41.5%.

What about the viability, T/C [33] of the same compound?
Its viability, T/C is 44.2%.

And the viability, T/C [34]?
The viability, T/C was 54.3%.

What about the viability, T/C [35] of the same compound?
The viability, T/C was 57.6%.

What about the viability, T/C [36] of the same compound?
Its viability, T/C is 4.45%.
